In assay [1] the target is Serotonin 5-HT1D receptor (Homo sapiens, UniProt P28221). Kind of assay: GTPγS Scintillation Proximity Assay, agonist and antagonist mode. It counts as biochemical. The protocol: Antagonist and agonist activities were determined using a GTPγS Scintillation Proximity Assay. The assay was prepared as follows: Membrane extracts were prepared from recombinant human Dopamine D2L, D3; Serotonin 5-HT1A, 5-HT1B, 5-HT1D and 5-HT1F receptors.
Samples were tested by proprietary biological assays by Ogeda S. A., Euroscreen FAST Business Unit, Rue Adrienne Bolland, 47 B-6041 Gosselies, Belgium. Each protein assay was prepared using the following conditions.
5-HT1D • Assay buffer: 20 mM HEPES pH 7.4; 200 mM NaCl, 10 μg/ml saponin, 3 mM MgCl2; • Membranes: recombinant 5-HT1D membrane extracts thawed on ice and diluted in assay buffer to give […] and kept on ice; • GDP: diluted in assay buffer to give a 30 μM working solution (3 μM final concentration); • Beads: PVT-WGA (Perkin Elmer, RPNQ001), diluted in assay buffer at 50 mg/ml (0.5 mg/10 μl); and • GTPγ^35S: (PerkinElmer NEG030X), diluted in assay buffer to give 0.1 nM.
Membranes were mixed with GDP (volume:volume 1:1) and incubated for at least 15 min on ice. In parallel, GTPγ[^35S] is mixed with the beads (volume:volume 1:1) just before starting the reaction.
To determine agonist activity, the following reagents were added in the wells of an Optiplate (Perkin Elmer): 50 μL of test or reference ligand, 10 μL of assay buffer, 20 μl of the membranes:GDP mix, and 20 μL of the GTPγ[^35S]:beads mix. EC50 values were used to determine whether a compound acted as an agonist.
To determine antagonist activity, the following reagents were added in the wells of an Optiplate (Perkin Elmer): 50 μL of test or reference ligand, 20 μL of the membranes:GDP mix, then the plate is incubated 15 minutes at room temperature. After incubation, 10 μL of reference agonist at historical EC80 (final concentration) was added, followed by 20 μL of the GTPγ[^35S]:beads mix.
The plates were covered with a top seal, mixed on an orbital shaker for 2 min, and then incubated for 1 hour at room temperature. Then the plates were centrifuged for 10 min at 2000 rpm, incubated at room temperature 1 hour and counted for 1 min/well with a PerkinElmer TopCount reader. IC50 values were used to determine whether a compound acted as an antagonist.
(SPA uses beads or plates that emit light when radiolabelled molecules are held near them.)

In assay [2] the target is T1, Serotonin 5-HT2B receptor (Homo sapiens, UniProt P41595).
T1 construct: expressed in transfected cells; host or cells: CHO-K1
Kind of assay: IPOne HTRF assay, agonist and antagonist mode. It counts as cell-based. The protocol:
Antagonist and agonist activities were determined using an IPOne […] HTRF assay. The assay was prepared as follows: CHO-K1 cells expressing human recombinant Adrenergic α1A, Serotonin 5-HT2A, and 5-HT2B receptors grown to mid-log phase in culture media without antibiotics were detached with PBS-EDTA, centrifuged and resuspended in medium without antibiotics buffer. 20,000 cells were distributed in a 96 well plate and incubated overnight at 37° C. with 5% CO2.
To analyze agonist activity, the medium was removed and 20 μl of assay buffer plus 20 μl of test compound or reference agonist were added in each well. The plate was incubated for 60 min. at 37° C. with 5% CO2. EC50 values were used to determine whether a compound acted as an agonist.
To analyze antagonist activity, 20 μl of test compound or reference antagonist was added and the plate is incubated for 15 min. at 37° C. in a humidified atmosphere of 95% air with 5% CO2, then 20 μl of reference agonist at a final concentration corresponding to the historical EC80 is added. The plate is incubated for 60 min. at 37° C. with 5% CO2. IP1-D2 reagent and anti-IP1 cryptate reagents are then dispensed in the wells and IP1 concentrations are then measured following the manufacturer recommendations. IC50 values were used to determine whether a compound acted as an antagonist.
Background: TR-FRET usually uses a lanthanide donor and a delayed reading to cut background.

Where two headings read alike, the source gives them in different places.

Sequence of Serotonin 5-HT1D receptor (P28221 whole entry): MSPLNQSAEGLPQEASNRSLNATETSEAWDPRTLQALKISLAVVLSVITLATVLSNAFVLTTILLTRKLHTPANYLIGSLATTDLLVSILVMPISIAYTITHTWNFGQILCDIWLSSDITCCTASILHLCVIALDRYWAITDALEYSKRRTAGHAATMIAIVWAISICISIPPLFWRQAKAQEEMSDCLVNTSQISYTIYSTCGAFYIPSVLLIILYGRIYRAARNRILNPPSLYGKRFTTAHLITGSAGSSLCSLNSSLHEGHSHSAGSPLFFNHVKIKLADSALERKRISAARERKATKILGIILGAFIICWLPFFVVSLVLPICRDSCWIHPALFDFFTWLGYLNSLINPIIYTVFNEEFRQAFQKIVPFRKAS
T1 sequence (P41595 whole entry): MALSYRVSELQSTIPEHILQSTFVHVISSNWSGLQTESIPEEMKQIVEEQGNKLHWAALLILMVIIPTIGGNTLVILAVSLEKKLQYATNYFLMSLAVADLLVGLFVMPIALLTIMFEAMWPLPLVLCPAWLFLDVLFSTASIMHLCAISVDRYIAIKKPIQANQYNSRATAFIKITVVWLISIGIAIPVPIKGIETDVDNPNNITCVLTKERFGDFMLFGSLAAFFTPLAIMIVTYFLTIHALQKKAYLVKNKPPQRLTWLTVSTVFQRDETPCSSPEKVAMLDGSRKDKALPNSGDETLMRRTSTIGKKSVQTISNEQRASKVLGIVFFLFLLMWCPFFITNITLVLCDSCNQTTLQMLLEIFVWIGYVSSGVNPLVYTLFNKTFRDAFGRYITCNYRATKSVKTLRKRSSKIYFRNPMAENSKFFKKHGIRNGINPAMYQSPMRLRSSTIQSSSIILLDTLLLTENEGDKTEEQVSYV

In the case of `CC[C@@H](CO)NC(=O)[C@@H]1C=C2c3cccc4c3c(c(C3CC3)n4C)C[C@H]2N(C)C1` [Compound D13, (6aR,9R)-5-cyclopropyl-N—((S)-1-hydroxybutan-2-yl)-4,7-dimethyl-4,6,6a,7,8,9-hexahydroindolo[4,3-fg]quinoline-9-carboxamide], the EC50 (as a rule, the concentration needed to bring the measured effect to its halfway point) in assay [1] (Agonist Activity (EC50), 5-HT1D, membrane extracts) was 730 nM; in assay [1] (EC50 value for the Serotonin 5-HT1D receptor, agonist mode, bound stated) it was less than 1000 nM. For the same molecule, the IC50 (as a rule, the midpoint of a concentration-inhibition curve) in assay [2] (CHO-K1 cells, vs reference agonist at EC80, read-out: Antagonist Activity (IC50), 5-HT2B) is 140 nM; in assay [2] (antagonist mode, bound stated, read-out: IC50 value for the Serotonin 5-HT2B receptor) it was less than 1000 nM.

(Values after patent US10815235B2, “Polycyclic compounds and uses thereof” (priority 2017, dated 2020).)
